Measurements from ChEMBL document CHEMBL1201862, “PubChem BioAssay data set” (2004).
Where “and” joins values, the source holds several entries; their conditions need not be identical. Equal entries are not always repeated. Calls of active or inactive are those of the source.

Experiments:
Cytochrome P450 2D6 = Cytochrome P450 2D6 (Homo sapiens, UniProt P10635);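 note: CYP2D6 member of a cytochrome P450 panel assay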
[1] = Luminescence Cell-Based Dose Confirmation HTS to Identify Inhibitors of Platelet Dense Granule Release. [Related pubchem assays: 1663 (Primary HTS), 1678 (Summary of Project)]; format: functional
[2] = biological target: Luciferin 4-monooxygenase (Photinus pyralis, UniProt P08659); experiment: inhibition of purified Photinus pyralis luciferase – biochemical, luminescence, dose response (AID 1891)
Luciferin 4-monooxygenase, sequence (P08659 whole entry): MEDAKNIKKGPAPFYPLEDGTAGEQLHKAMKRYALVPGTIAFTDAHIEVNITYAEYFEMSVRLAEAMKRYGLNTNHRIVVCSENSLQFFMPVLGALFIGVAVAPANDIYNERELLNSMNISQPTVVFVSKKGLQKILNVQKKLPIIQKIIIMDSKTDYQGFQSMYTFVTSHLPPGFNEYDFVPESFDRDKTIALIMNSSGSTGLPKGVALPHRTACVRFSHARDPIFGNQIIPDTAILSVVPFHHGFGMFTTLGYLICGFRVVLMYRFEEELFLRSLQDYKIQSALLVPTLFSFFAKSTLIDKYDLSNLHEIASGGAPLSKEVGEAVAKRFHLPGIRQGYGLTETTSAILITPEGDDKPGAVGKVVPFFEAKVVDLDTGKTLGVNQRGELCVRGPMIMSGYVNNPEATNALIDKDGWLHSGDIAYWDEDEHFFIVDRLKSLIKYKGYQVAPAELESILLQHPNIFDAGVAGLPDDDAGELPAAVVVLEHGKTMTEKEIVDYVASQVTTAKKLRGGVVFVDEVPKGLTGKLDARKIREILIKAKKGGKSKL

Cytochrome P450 2C19 = Cytochrome P450 2C19 (Homo sapiens, UniProt P33261); experiment: Cytochrome panel assay with activity outcomes. Panel member name: p450-cyp2c19 Compounds with AC50 equal or less than 10 uM are considered active; format: functional; settings: read-out: AC50
Cytochrome P450 2C19, sequence (P33261 whole entry): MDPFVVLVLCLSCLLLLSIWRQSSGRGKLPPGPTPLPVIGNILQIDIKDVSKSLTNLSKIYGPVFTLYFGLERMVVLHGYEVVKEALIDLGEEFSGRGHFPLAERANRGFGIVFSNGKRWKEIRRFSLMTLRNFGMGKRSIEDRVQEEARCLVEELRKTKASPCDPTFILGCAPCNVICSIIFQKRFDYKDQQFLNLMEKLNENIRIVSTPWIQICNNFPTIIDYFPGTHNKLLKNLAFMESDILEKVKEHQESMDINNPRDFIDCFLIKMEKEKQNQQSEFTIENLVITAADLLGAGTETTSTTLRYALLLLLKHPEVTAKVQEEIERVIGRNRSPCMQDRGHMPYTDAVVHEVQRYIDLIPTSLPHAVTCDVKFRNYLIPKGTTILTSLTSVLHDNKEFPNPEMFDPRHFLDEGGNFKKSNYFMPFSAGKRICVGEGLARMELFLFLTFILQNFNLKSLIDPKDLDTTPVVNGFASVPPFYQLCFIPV

[3] = biological target: T1, Heat shock factor protein 1 (Mus musculus, UniProt P38532); experiment: enhancement of HSF1-driven luciferase signal – cell-based, NIH3T3, luminescence, dose retest, confirmation (AID 435004); format: functional;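 note: stress induced by proteasome inhibitor MG132 added 30 min after compound; luciferase reporter driven by HSF1 response element in NIH3T3 cells; actives raise luminescence as potentiators of the MG132 stress response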
T1 sequence (P38532 whole entry): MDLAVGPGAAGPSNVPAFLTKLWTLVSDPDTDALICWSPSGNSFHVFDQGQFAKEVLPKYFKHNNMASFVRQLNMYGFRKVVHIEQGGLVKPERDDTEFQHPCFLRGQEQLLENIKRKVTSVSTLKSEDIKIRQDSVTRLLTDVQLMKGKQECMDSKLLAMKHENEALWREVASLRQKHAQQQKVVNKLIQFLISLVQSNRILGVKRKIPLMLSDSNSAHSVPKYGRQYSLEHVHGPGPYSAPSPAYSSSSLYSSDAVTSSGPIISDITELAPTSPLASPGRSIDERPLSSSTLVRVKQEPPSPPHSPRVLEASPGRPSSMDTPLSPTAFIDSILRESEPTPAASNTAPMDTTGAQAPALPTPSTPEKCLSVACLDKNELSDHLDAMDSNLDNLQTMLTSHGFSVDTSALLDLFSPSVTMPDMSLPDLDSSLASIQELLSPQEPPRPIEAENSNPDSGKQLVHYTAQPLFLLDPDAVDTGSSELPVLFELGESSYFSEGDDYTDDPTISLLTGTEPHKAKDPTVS

[4] = Luminescence Cell-Based Dose Response HTS to Identify Inhibitors of 5'UTR Stem-Loop Driven Prion Protein mRNA Translation in H4 Neuroglioblastoma Cells. [Related pubchem assays: 1827 (Project Summary), 1813 (Primary HTS)]; format: functional
[5] = luciferase reporter signal suppression in cells – H4 neuroglioma cells, luminescence, dose response (AID 1990); format: functional, cell-based
[6] = alpha-synuclein stem-loop luciferase translation blockers – H4 neuroglioma cells, luminescence, confirmation (AID 1988); format: functional, cell-based
Cytochrome P450 2C9 = Cytochrome P450 2C9 (Homo sapiens, UniProt P11712)
Cytochrome P450 2C9, sequence (P11712 whole entry): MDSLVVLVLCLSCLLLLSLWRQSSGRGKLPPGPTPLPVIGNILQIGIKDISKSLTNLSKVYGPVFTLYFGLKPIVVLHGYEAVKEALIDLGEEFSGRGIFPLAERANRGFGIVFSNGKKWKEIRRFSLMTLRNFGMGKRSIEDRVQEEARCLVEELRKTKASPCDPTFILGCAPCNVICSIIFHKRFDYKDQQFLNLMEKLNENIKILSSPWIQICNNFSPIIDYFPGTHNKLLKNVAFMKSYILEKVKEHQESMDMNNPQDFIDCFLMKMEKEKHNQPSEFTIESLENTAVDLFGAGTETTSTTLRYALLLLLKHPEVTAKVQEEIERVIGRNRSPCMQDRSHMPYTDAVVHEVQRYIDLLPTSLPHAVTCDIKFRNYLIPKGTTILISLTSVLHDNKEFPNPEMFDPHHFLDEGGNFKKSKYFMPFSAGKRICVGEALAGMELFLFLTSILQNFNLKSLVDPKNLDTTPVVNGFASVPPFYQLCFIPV

Cytochrome P450 1A2 = biological target: T2, Cytochrome P450 1A2 (Homo sapiens, UniProt P05177);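 note: PubChem cytochrome P450 panel assay, CYP1A2 panel member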
T2 sequence (P05177 whole entry): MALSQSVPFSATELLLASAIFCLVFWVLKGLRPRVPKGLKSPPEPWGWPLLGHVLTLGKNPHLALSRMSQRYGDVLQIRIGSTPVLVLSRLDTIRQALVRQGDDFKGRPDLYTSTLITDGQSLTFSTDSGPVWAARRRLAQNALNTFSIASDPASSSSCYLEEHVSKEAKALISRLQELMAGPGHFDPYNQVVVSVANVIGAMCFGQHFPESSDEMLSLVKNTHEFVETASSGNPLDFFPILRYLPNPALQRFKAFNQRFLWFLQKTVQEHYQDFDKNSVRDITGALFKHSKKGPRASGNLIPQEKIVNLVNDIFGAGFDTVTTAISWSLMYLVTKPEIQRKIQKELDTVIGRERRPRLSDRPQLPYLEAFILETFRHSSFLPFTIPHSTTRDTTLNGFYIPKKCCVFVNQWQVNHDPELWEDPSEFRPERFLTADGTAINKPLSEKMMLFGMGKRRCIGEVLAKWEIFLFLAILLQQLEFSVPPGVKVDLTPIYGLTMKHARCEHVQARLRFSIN

Streptokinase A = biological target: T3, Streptokinase A (Streptococcus pyogenes serotype M1, UniProt P10520); experiment: viability-normalized secreted streptokinase activity reduction – plasminogen activation absorbance, OD405, dose response (AID 1914); format: functional, Streptococcus pyogenes M1 GAS;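 note: secreted streptokinase activity via plasminogen activation per viability signal from cell pellet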
T3 sequence (P10520 whole entry): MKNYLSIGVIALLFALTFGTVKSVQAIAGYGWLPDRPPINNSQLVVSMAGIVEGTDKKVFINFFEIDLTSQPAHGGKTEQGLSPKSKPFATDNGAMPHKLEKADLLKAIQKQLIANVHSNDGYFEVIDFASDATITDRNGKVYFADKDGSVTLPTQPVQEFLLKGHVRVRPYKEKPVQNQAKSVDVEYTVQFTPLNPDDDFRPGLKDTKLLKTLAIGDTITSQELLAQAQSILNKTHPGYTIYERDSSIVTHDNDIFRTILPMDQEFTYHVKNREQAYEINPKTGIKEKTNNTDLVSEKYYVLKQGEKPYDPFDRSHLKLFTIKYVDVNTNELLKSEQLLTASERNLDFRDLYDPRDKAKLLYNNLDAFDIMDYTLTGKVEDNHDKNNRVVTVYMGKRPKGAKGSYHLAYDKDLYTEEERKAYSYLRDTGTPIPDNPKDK

Streptococcus = experiment: GAS UMAA2166 growth inhibition – luminescence, BacTiterGlo, counter-screen for streptokinase expression inhibitor project, dose response (AID 1915); format: functional, organism-based;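 note: potency for reduction of bacterial viability or growth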
[7] = NIH3T3 cell viability loss – ATP luminescence, mouse fibroblasts, counter-screen, dose response (AID 2010); format: functional, cell-based;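 note: cells exposed to compound for about 90 hours before reading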
[8] = Trypanosoma cruzi growth suppression in host cells – NIH3T3 host cells, beta-gal luminescence, confirmation (AID 2044); format: functional, cell-based;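 note: intracellular parasites grown in NIH/3T3 mouse fibroblasts as host cells; luminescent beta-galactosidase reporter signal from transgenic T. cruzi replicating inside host cells; inhibitors lower the luminescence signal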
Cytochrome P450 3A4 = Cytochrome P450 3A4 (Homo sapiens, UniProt P08684);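 note: CYP3A4 tested as one member of a cytochrome P450 panel screen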
Cytochrome P450 3A4, sequence (P08684 whole entry): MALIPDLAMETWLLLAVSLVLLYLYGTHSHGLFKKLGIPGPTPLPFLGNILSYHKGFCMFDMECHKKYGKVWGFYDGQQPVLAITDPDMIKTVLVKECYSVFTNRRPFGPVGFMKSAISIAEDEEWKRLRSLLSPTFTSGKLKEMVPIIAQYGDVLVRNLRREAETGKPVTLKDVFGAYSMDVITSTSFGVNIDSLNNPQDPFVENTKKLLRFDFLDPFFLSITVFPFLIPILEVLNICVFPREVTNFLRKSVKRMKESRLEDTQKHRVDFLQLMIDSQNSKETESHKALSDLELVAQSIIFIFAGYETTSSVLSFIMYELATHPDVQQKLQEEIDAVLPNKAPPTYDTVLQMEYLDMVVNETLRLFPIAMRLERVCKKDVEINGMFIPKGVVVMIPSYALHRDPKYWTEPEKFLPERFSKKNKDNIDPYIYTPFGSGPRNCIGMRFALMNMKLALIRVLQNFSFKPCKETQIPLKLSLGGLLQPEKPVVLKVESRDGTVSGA

[9] = system: Streptococcus sp. 'group A'; experiment: Streptococcus pyogenes SK(-)GAS viability under kanamycin – luminescence, BacTiterGlo, confirmation, counter-screen for streptokinase expression inhibitor project, dose response (AID 1900); format: functional, organism-based
[10] = Luminescence Cell-Based Dose Retest to Confirm Inhibitors of Cancer Stem Cells. [Related pubchem assays (depositor defined):AID2717, AID2721]; format: functional; settings: Homo sapiens

Cytochrome P450 2D6, sequence (P10635 whole entry): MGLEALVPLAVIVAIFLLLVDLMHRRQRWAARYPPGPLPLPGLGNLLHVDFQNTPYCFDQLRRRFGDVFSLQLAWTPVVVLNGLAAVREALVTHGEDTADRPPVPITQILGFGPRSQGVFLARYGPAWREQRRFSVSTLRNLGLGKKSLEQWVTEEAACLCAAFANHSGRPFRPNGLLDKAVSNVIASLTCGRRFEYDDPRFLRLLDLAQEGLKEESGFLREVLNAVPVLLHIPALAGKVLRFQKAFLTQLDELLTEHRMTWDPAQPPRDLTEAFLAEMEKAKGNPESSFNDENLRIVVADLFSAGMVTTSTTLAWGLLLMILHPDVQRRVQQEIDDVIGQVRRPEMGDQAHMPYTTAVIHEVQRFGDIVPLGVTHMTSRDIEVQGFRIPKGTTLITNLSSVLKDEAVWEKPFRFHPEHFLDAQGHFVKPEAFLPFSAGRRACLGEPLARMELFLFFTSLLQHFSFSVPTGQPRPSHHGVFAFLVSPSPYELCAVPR

Cc1ccccc1C(=O)N/N=C/c1ccncc1
AC50 (Cytochrome P450 2D6): 22.4 µM (inconclusive)

COC(=O)[C@@]1(Cc2ccccc2)[C@H]2c3cc(C(=O)N4CCCC4)n(Cc4ccsc4Br)c3C[C@H]2CN1C(=O)c1ccccc1
AC50 (Cytochrome P450 2D6): 12.6 µM (inconclusive)

CC(C)n1nc(C(=O)Nc2ccccc2N2CCOCC2)c2ccccc2c1=O
EC50 [1]: 26.7 µM (active)
EC50 [2]: > 112 µM (not active)

CCOCCn1c(CN(Cc2ccccc2)Cc2ccccc2)nc2c1c(=O)[nH]c(=O)n2C
AC50 (Cytochrome P450 2C19): 17.8 µM (inconclusive)
AC50 (Cytochrome P450 2D6): 39.8 µM (inconclusive)

Cc1ccc(C(c2c(C)nn(-c3ccccc3)c2N)c2c(C)nn(-c3ccccc3)c2N)cc1
EC50 [3]: > 260 µM (inactive)

Cn1ccc2cc3c(cc21)CCN3C(=O)Nc1cccnc1
AC50 (Cytochrome P450 2D6): 31.6 µM (inconclusive) and 20 µM (inconclusive)

CC(C)CN(C(=O)c1cccs1)C1CCS(=O)(=O)C1 (configuration not stated)
EC50 [3]: > 260 µM (inactive)

CCC(C)(C)NC(=O)C(c1ccc(C)cc1)N(Cc1cccs1)C(=O)c1ccc2c(c1)OCCO2 (configuration not stated)
EC50 [3]: > 260 µM (inactive)

CCS(=O)(=O)c1ccc2oc(Nc3ccccc3Cl)nc2c1
EC50 [1]: 7.7 µM (active)
EC50 [2]: 1.75 µM (active)

COc1cc2c(cc1OC)-c1cc(NC3CCCCC3)nc(=O)n1CC2
EC50 [4]: > 120 µM (not active)
EC50 [1]: 2.24 µM (active)
EC50 [5]: 20 µM (active)
EC50 [2]: > 112 µM (not active)
EC50 [6]: 33.2 µM (active)

O=C(NC1CCCCC1)C(Cc1ccccc1)N1C(=O)C2C3CCC(C3)C2C1=O (configuration not stated)
AC50 (Cytochrome P450 2C9): 0.1 µM (inconclusive)
AC50 (Cytochrome P450 2D6): 31.6 µM (inconclusive)

COc1cccc(Oc2c(C)oc3c(CN4CCCCC4)c(O)ccc3c2=O)c1
EC50 [1]: 19.2 µM (active)
EC50 [2]: > 112 µM (not active)

CC(C)NC[C@H]1CCc2cc(CO)c([N+](=O)[O-])cc2N1
AC50 (Cytochrome P450 1A2): 10 µM (inconclusive)
AC50 (Cytochrome P450 2D6): 6.31 µM (inconclusive)

COC(=O)[C@@]1(Cc2ccc(F)cc2)[C@H]2c3cc(C(=O)N(C)C)n(Cc4ccc(O)c(OC)c4)c3C[C@H]2CN1C(=O)c1ccccc1
AC50 (Cytochrome P450 1A2): 25.1 µM (inconclusive)
AC50 (Cytochrome P450 2D6): 20 µM (inconclusive)

CC(=O)Nc1nnc(S(=O)(=O)N2CCN(c3ccc([N+](=O)[O-])cc3Cl)CC2)s1
EC50 (Streptokinase A): > 150 µM (not active)
EC50 (Streptococcus): > 150 µM (not active)

Cc1nn(C(C)C(=O)N2CCc3ccccc3C2)c(=O)c2cc3occc3n12 (configuration not stated)
EC50 [1]: > 112 µM (not active)
EC50 [2]: > 112 µM (not active)

O=C(COc1ccc(Cl)cc1)Nc1ccc(Cc2ccncc2)cc1
EC50 [1]: > 112 µM (not active)
EC50 [2]: > 112 µM (not active)

COc1ccc(N(CC(=O)N2CCc3ccccc32)S(=O)(=O)c2c(C)noc2C)cc1
EC50 [3]: 56.1 µM (active)

O=C(Nc1ccc(Cl)cn1)c1ccc(-c2ccc(Cl)c(Cl)c2)o1
EC50 [1]: > 112 µM (not active)
EC50 [2]: > 112 µM (not active)

O=C(NCCc1ccccc1)N1c2ccccc2Sc2ccccc21
EC50 [3]: > 260 µM (inactive)

COC(=O)c1ccc(CSc2nnnn2-c2ccc(C)cc2C)o1
EC50 [3]: > 260 µM (inactive)

COC(=O)[C@@]1(Cc2ccccc2)[C@H]2c3cc(C(=O)N4CCCC4)n(Cc4ccc(O)c(OC)c4)c3C[C@H]2CN1C(=O)c1ccccc1
AC50 (Cytochrome P450 1A2): 25.1 µM (inconclusive)
AC50 (Cytochrome P450 2D6): 20 µM (inconclusive)

COc1ccccc1CNc1ccnc(-c2cccc(NS(C)(=O)=O)c2)n1
AC50 (Cytochrome P450 2D6): 39.8 µM (inconclusive)

Cc1nc(N2CCC(C)CC2)c2c(C)c(C(=O)Nc3cccc(C(F)(F)F)c3)sc2n1
EC50 [3]: > 260 µM (inactive)

COc1ccc(C(=O)N2CCC3(CC2)CN(c2ccc(-c4ccccc4)cc2)C3)cc1
AC50 (Cytochrome P450 2D6): 15.8 µM (inconclusive)

C/C(Cn1cnc([N+](=O)[O-])n1)=N\NC(=O)c1ccccc1F
EC50 [3]: > 260 µM (inactive)
EC50 [7]: > 60 µM (not active)
EC50 [8]: 1.25 µM (active)

O=C(N/C(=C/c1cccs1)c1nc2ccccc2[nH]1)c1ccccc1
AC50 (Cytochrome P450 1A2): 25.1 µM (inconclusive)
AC50 (Cytochrome P450 2C9): 7.94 µM (inconclusive)
AC50 (Cytochrome P450 2D6): 28.2 µM (inconclusive)

COC(=O)c1cccc([N+](=O)[O-])c1CN1CCCC(C(N)=O)C1 (configuration not stated)
EC50 [1]: > 112 µM (not active)
EC50 [2]: > 112 µM (not active)

Cc1ccc(CN(C(=O)c2csnn2)C(C(=O)NC2CCCC2)c2ccc(C)o2)cc1 (configuration not stated)
EC50 [1]: > 112 µM (not active)
EC50 [2]: 67.6 µM (active)

C[C@@H](C(=O)Nc1ccc2ccccc2c1)[C@@H]1C[C@@]1(C)[C@@H](NC(=O)OCc1ccccc1)c1ccccc1
AC50 (Cytochrome P450 2D6): 12.6 µM (inconclusive)

C/C(N)=C(/C#N)C(=O)CSc1nnc(-c2ccc3c(c2)OCO3)o1
EC50 [3]: > 260 µM (inactive)

ClC(Cl)c1nnc(-c2ccccc2)c(-c2c[nH]c3ccccc23)n1
EC50 [3]: 81.5 µM (active)

COCCOC(=O)c1c(C)nc(SCC(=O)Nc2ccc(C)cc2)c(C#N)c1-c1ccco1
EC50 (Streptokinase A): > 150 µM (not active)
EC50 (Streptococcus): 53.5 µM (active)

COc1ccc(C(C[N+](=O)[O-])C2(c3ccc(OC)c(OC)c3)C(=O)c3ccccc3C2=O)cc1 (configuration not stated)
EC50 [3]: 13.3 µM (active)

Cc1nn(C)c(Oc2ccccc2)c1CCNS(=O)(=O)c1ccc(Cl)cc1
EC50 [3]: > 260 µM (inactive)

CCC(=O)Nc1cccc(C(=O)/C=C/c2ccc(F)cc2)c1
EC50 [3]: 11.6 µM (active)

CN(C)C(=O)c1ccc(-c2ccc3ncnc(Nc4ccccc4)c3c2)cc1
AC50 (Cytochrome P450 2D6): 12.6 µM (inconclusive)
AC50 (Cytochrome P450 3A4): 7.94 µM (inconclusive)

COC(=O)C1=C(C)N=C2SCCC(=O)N2C1c1ccc(OC(=O)c2ccco2)cc1 (configuration not stated)
EC50 [1]: > 112 µM (not active)
EC50 [2]: > 112 µM (not active)

COCCNC(=O)/C(C#N)=C/c1ccc(OC(=O)c2cccs2)c(OC)c1
EC50 [3]: > 260 µM (inactive)

CN(C)/C=C(\C=N\OCc1ccc(Cl)cc1Cl)C(=O)Nc1ccc(Cl)c(Cl)c1
EC50 [9]: 0.618 µM (active)
AC50 [10]: 1.5 µM (active)
EC50 (Streptococcus): 3.07 µM (active)

COc1cccc(Cn2c(=O)cnc3cnc(N4CCN(C)CC4)nc32)c1
AC50 (Cytochrome P450 1A2): 25.1 µM (inconclusive)
AC50 (Cytochrome P450 2C9): 25.1 µM (inconclusive)
AC50 (Cytochrome P450 2D6): 20 µM (inconclusive)

COc1ccc(-c2coc3cc4oc(=O)c(CC(=O)O)c(C)c4cc23)cc1
EC50 [3]: > 260 µM (inactive)

O=[N+]([O-])c1cc([N+](=O)[O-])c(Oc2c(F)cccc2F)cc1NN1CCCCC1
EC50 [3]: > 260 µM (inactive)
